We go through 15 molecules from ChEMBL document CHEMBL3632488, “Discovery of potent and selective cytotoxic activity of new quinazoline-ureas against TMZ-resistant glioblastoma multiforme (GBM)” (Eur J Med Chem, 2015).

A short description of experiment [1]: Antiproliferative activity against human GBM2 cells assessed as reduction in cell viability incubated for 72 hrs by WST-1 method. Particulars: GBM2, 72 h. The experiment is classed as functional, cell-based.
Experiment [2] is described as follows: Antiproliferative activity against human GBM1 cells assessed as reduction in cell viability incubated for 72 hrs by WST-1 method. It counts as functional, cell-based. The note with it: GBM1, 72 h.
Experiment [3] is described as follows: Antiproliferative activity against human GBM3 cells assessed as reduction in cell viability incubated for 72 hrs by WST-1 method. The experiment is classed as functional, cell-based. Particulars: GBM3, 72 h.
The nature of experiment [4]: Antiproliferative activity against human GBM3 cells assessed as reduction in cell viability at 10 uM incubated for 72 hrs by WST-1 method. The experiment is classed as functional. The note with it: GBM3, 72 h.
The nature of experiment [5]: Antiproliferative activity against human GBM1 cells assessed as reduction in cell viability at 10 uM incubated for 72 hrs by WST-1 method. The experiment is classed as functional. Particulars: GBM1, 72 h.
Experiment [6] in a line: Selectivity index, ratio of IC50 for normal human astrocytes to IC50 for human GBM1 cells.
Experiment [7] is described as follows: Selectivity index, ratio of IC50 for normal human astrocytes to IC50 for human GBM3 cells.
Experiment [8] can be described thus: Cytotoxicity against normal human astrocytes assessed as cell viability incubated for 72 hrs by WST-1 method. It counts as cell-based. The note with it: Astrocyte.
Experiment [9] can be described thus: Selectivity index, ratio of IC50 for normal human astrocytes to IC50 for human GBM2 cells.
Experiment [10] in a line: Antiproliferative activity against human GBM2 cells assessed as reduction in cell viability at 10 uM incubated for 72 hrs by WST-1 method. It counts as functional. The note with it: GBM2, 72 h.

A value given as a limit tells only on which side of the number the result lay.

As for `O=C(Nc1ccc(C(F)(F)F)cc1)Nc1cc2ncncc2cc1OCc1cccc(F)c1`, the IC50 in [1] turned out to be 3.2 µM; in [2], 3.8 µM; in experiment [3], 6.3 µM; in experiment [8] it was 8.9 µM. In addition, the inhibition at 10 µM in experiment [4] is 95.4%; in experiment [5] it was 76.2%; in [10] it was 99.5%. Also, the “Ratio IC50” value in experiment [6], in experiment [7] and in experiment [9] was 2 each time.

As to `O=C(Nc1ccccc1F)Nc1cc2ncncc2cc1OCc1cccc(F)c1`, the IC50 is 6.4 µM in experiment [1], 8 µM in experiment [2], 8.1 µM in experiment [3] and greater than 10 µM in experiment [8]. Also, the inhibition at 10 µM in experiment [4] came out at 61.4%; in [5], 63%; in [10] it was 74.5%. The “Ratio IC50” value in [6], in [7] and in experiment [9] was greater than 1.3 in each case.

Consider `O=C(Nc1cccc(Cl)c1)Nc1cc2ncncc2cc1OCc1cccc(Cl)c1`, for which the concentration for half-maximal inhibition (IC50) in [1] was 3.5 µM; in experiment [2], 3.3 µM; in experiment [3], 3.5 µM; in experiment [8] it was greater than 10 µM. Also, the figures for the inhibition at 10 µM in [4], in experiment [5] and in experiment [10] were 100%, 85% and 98.2%, respectively. The “Ratio IC50” value in experiment [6], in experiment [7] and in experiment [9] was greater than 2.9 each time.

Turning to `O=C(Nc1cc2ncncc2cc1OCc1ccccc1Cl)Nc1cccc2ccccc12`, the IC50 in experiment [1] was determined as 2.9 µM; in experiment [2], 2.9 µM; in experiment [3], 2.7 µM; in experiment [8], 2.3 µM. For the same molecule, the inhibition at 10 µM in experiment [4] was 100%; in experiment [5], 97.3%; in experiment [10] it was 98.1%. The “Ratio IC50” value in experiment [6], in experiment [7] and in experiment [9] was 1 in each case.

Take `O=C(Nc1ccccc1F)Nc1cc2ncncc2cc1OCc1cccc(Cl)c1`: the concentration for half-maximal inhibition (IC50) in experiment [1] worked out at 4.4 µM; in experiment [2], 4.2 µM; in experiment [3], 7.5 µM; in [8], 8.7 µM. Further, the inhibition at 10 µM in experiment [4] was 58.8%; in [5], 73%; in experiment [10], 82.3%. In addition, the “Ratio IC50” value in experiment [6], in [7] and in [9] was 1.6 throughout.

Take `O=C(Nc1cc2ncncc2cc1OCc1ccc(F)cc1)Nc1cccc2ccccc12`: the IC50 in [1] amounted to 4.5 µM; in [2] it was 8.1 µM; in experiment [3], 8.3 µM; in experiment [8], 8.5 µM. The inhibition at 10 µM was 94.4% in experiment [4], 99.3% in experiment [5] and 99% in [10]. The “Ratio IC50” value in experiment [6], in [7] and in [9] was 1.2 in each case.

As for `O=C(Nc1cccc(F)c1)Nc1cc2ncncc2cc1OCc1ccccc1Cl`, the IC50 stood at 3.2 µM in experiment [1], 4 µM in experiment [2], 2.4 µM in [3] and 9.4 µM in experiment [8]. Further, the inhibition at 10 µM in experiment [4] worked out at 102%; in [5], 97.7%; in [10], 102%. The “Ratio IC50” value in [6], in [7] and in [9] was 2.9 each time.

In the case of `CC/C(=C(\c1ccccc1)c1ccc(OCCN(C)C)cc1)c1ccccc1` [TAMOXIFEN], the concentration for half-maximal inhibition (IC50) in [1] was 3.5 µM; in [2] it was 7.5 µM; in experiment [3], 4.7 µM; in [8] it was greater than 10 µM. Further, the inhibition at 10 µM was determined as 95.7% in [4], 98.4% in [5] and 101% in experiment [10]. In addition, the “Ratio IC50” value in [6], in experiment [7] and in experiment [9] was greater than 2.1 each time.

In the case of `O=C(Nc1cccc(Cl)c1)Nc1cc2ncncc2cc1OCc1ccccc1`, the IC50 in [1] came out at 4.1 µM; in experiment [2], 5.7 µM; in experiment [3], 6.4 µM; in experiment [8] it was 7.4 µM. The inhibition at 10 µM amounted to 74.8% in [4], 79.1% in experiment [5] and 97.3% in [10]. For the same molecule, the “Ratio IC50” value in experiment [6], in [7] and in experiment [9] was 1.4 each time.

In the case of `O=C(Nc1cc2ncncc2cc1OCc1ccc(Cl)cc1)Nc1cccc2ccccc12`, the IC50 was 4.5 µM in experiment [1], 7.9 µM in [2], 7.7 µM in experiment [3] and greater than 10 µM in [8]. The inhibition at 10 µM in [4] was found to be 98.8%; in [5] it was 97.1%; in experiment [10], 98.5%. The “Ratio IC50” value in experiment [6], in experiment [7] and in experiment [9] was greater than 1.5 throughout.

Turning to `O=C(Nc1ccccc1F)Nc1cc2ncncc2cc1OCc1ccccc1F`, the concentration for half-maximal inhibition (IC50) in [1] is 3.6 µM; in experiment [2] it was 4.2 µM; in experiment [3], 3.8 µM; in experiment [8] it was 10 µM. Further, the inhibition at 10 µM in [4] is 94.6%; in experiment [5], 80.7%; in experiment [10], 92.4%. The “Ratio IC50” value in experiment [6], in [7] and in [9] was 2.6 each time.

As to `O=C(Nc1ccc(C(F)(F)F)cc1)Nc1cc2ncncc2cc1OCc1cccc(Cl)c1`, the IC50 came out at 4.7 µM in [1], 3.4 µM in experiment [2], 5.1 µM in experiment [3] and 8.8 µM in experiment [8]. In addition, the inhibition at 10 µM in [4] turned out to be 90.1%; in experiment [5], 75.7%; in [10], 94.6%. The “Ratio IC50” value in experiment [6], in [7] and in experiment [9] was 2 in each case.

Take `CCc1c2c(nc3ccc(OC(=O)N4CCC(N5CCCCC5)CC4)cc13)-c1cc3c(c(=O)n1C2)COC(=O)[C@]3(O)CC`: the 50% inhibitory concentration (IC50) in [1] was 2.4 µM; in experiment [2], greater than 10 µM; in experiment [3] it was 5 µM; in experiment [8] it was greater than 10 µM. Moreover, the values for the inhibition at 10 µM in [4], in [5] and in [10] were 54.1%, 34.1% and 91.8%, respectively.

With `O=C(Nc1ccc(Cl)c(Cl)c1)Nc1cc2ncncc2cc1OCc1ccccc1F`, the IC50 in [1] was 6 µM; in experiment [2], 4.1 µM; in [3] it was greater than 10 µM; in experiment [8] it was 3.9 µM. For the same molecule, the inhibition at 10 µM was 50.2% in [4], 84.4% in experiment [5] and 87.6% in experiment [10].

For `COc1cc([C@@H]2c3cc4c(cc3[C@@H](O[C@@H]3O[C@@H]5CO[C@@H](C)O[C@H]5[C@H](O)[C@H]3O)[C@H]3COC(=O)[C@H]23)OCO4)cc(OC)c1O` [ETOPOSIDE], the IC50 in [1] was 1.1 µM; in experiment [2], greater than 10 µM; in experiment [3], greater than 10 µM; in experiment [8], greater than 10 µM. The inhibition at 10 µM is 22.1% in experiment [4], 53.5% in experiment [5] and 88.2% in experiment [10].
